“And” between values parts separate entries of the source, which are not always exact repeats. Identical values can stand only once. Inconclusive results and toxic doses are left out. Where a SMILES comes first, the peptide text is derived from it. The star is where a group is joined. Cbz = O=C(OCc1ccccc1)*

This assay has as its system B6C3F1 mice, B16 melanoma ip, median survival T/C. Kind of assay: NCI In Vivo Anticancer Drug Screen. Data for tumor model B16 Melanoma (intraperitoneal) in B6C3F1 mice. To be noted: endpoint: median survival time, higher = longer survival. A digest of the protocol: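 Antitumor effect was judged in mice with transplanted tumors by dividing the treated group's survival measure by that of vehicle controls.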

The mark [1] stands for this setting: dose: 12.5 mg/kg/injection, schedule: Q01DX009 (ip), vehicle: saline with Tween-80.
Where [2] appears, read: dose: 25.0 mg/kg/injection, schedule: Q01DX009 (ip), vehicle: saline with Tween-80.
[3] abbreviates: dose: 12.5 mg/kg/injection, schedule: Q01DX009 (ip), vehicle: saline.
Where [4] appears, read: dose: 25.0 mg/kg/injection, schedule: Q01DX009 (ip), vehicle: saline.
Setting [5] is: dose: 50.0 mg/kg/injection, schedule: Q01DX009 (ip), vehicle: saline with Tween-80.
[6] abbreviates: dose: 50.0 mg/kg/injection, schedule: Q01DX009 (ip), vehicle: saline.
Where [7] appears, read: dose: 100.0 mg/kg/injection, schedule: Q01DX009 (ip), vehicle: saline with Tween-80.
Where [8] appears, read: dose: 200.0 mg/kg/injection, schedule: Q01DX009 (ip), vehicle: saline with Tween-80.
Where [9] appears, read: dose: 6.25 mg/kg/injection, schedule: Q01DX009 (ip), vehicle: saline with Tween-80.
[10] abbreviates: dose: 100.0 mg/kg/injection, schedule: Q01DX009 (ip), vehicle: saline.

In the case of `Cc1cc2c(c3oc(C4(C)OC4C4OC4C)cc(=O)c13)C(=O)c1c(O)c(C3CC(C)(N(C)C)C(O)C(C)O3)cc(C3CC(N(C)C)C(O)C(C)O3)c1C2=O` (centres undefined), the T/C (dose: 2.0 micrograms/kg/injection, schedule: Q01DX009 (ip), vehicle: Klucel (hydroxypropylcellulose) (HPC)) was 123 % of control and the T/C (dose: 4.0 micrograms/kg/injection, schedule: Q01DX009 (ip), vehicle: Klucel (hydroxypropylcellulose) (HPC)) is 118 % of control.
As to `CN(C)N=Nc1ccc(C(N)=O)cc1`, the T/C (dose: 4.5 mg/kg/injection, schedule: Q01DX009 (ip), vehicle: saline with Tween-80) was 110 % of control; the T/C (dose: 7.5 mg/kg/injection, schedule: Q01DX009 (ip), vehicle: saline with Tween-80) is 114 % of control; the T/C (dose: 8.0 mg/kg/injection, schedule: Q01DX009 (ip), vehicle: saline with Tween-80) is 107 % of control; the T/C under setting [1] is 119 % of control and 120 % of control; the T/C (dose: 13.0 mg/kg/injection, schedule: Q01DX009 (ip), vehicle: saline with Tween-80) is 101 % of control; the T/C (dose: 20.83 mg/kg/injection, schedule: Q01DX009 (ip), vehicle: saline with Tween-80) was 114 % of control and 288 % of control. Moreover, the T/C runs as follows: (dose: 21.0 mg/kg/injection, schedule: Q01DX009 (ip), vehicle: saline with Tween-80) 118 % of control; (dose: 34.72 mg/kg/injection, schedule: Q01DX009 (ip), vehicle: saline with Tween-80) 110 % of control and 115 % of control; (dose: 35.0 mg/kg/injection, schedule: Q01DX009 (ip), vehicle: saline with Tween-80) 111 % of control; (dose: 57.86 mg/kg/injection, schedule: Q01DX009 (ip), vehicle: saline with Tween-80) 124 % of control; (dose: 58.0 mg/kg/injection, schedule: Q01DX009 (ip), vehicle: saline with Tween-80) 118 % of control; (dose: 96.0 mg/kg/injection, schedule: Q01DX009 (ip), vehicle: saline with Tween-80) 117 % of control.
For the compound `CC(=O)Nc1ccc(/C=N/Nc2ccc([N+](=O)[O-])cn2)cc1`, the T/C runs as follows: under setting [1], 89 % of control; under setting [2], 89 % of control.
On to `Clc1ccc2c(Cl)ncnc2c1`, for which the T/C by setting is: under setting [3], 96 % of control; under setting [4], 100 % of control; under setting [5], 93 % of control; under setting [6], 100 % of control.
In the case of `CC(C)C1OC(=O)/C=C/C=C/C=C/C=C/C=C/CC(O)C(C)C(O)CC(O)CC(O)CC(O)CC(O)CC(O)CC(O)/C=C/C1C` (centres undefined), the T/C is, setting by setting: (dose: 1.56 mg/kg/injection, schedule: Q01DX009 (ip), vehicle: saline) 101 % of control; (dose: 3.12 mg/kg/injection, schedule: Q01DX009 (ip), vehicle: saline) 100 % of control; (dose: 6.25 mg/kg/injection, schedule: Q01DX009 (ip), vehicle: saline) 102 % of control.
Turning to `Oc1ccc(CCl)c2cccnc12`, the T/C reads like this: (dose: 12.0 mg/kg/injection, schedule: Q01DX009 (ip), vehicle: saline) 102 % of control; under setting [3], 100 % of control.
`CCCC(C(CC)CNC(=O)Nc1cccc2ccccc12)N(C)C(=O)Nc1cccc2ccccc12` (centres undefined): the T/C by setting is: under setting [5], 99 % of control; under setting [7], 95 % of control; under setting [8], 102 % of control; (dose: 400.0 mg/kg/injection, schedule: Q01DX009 (ip), vehicle: saline with Tween-80) 95 % of control.
In the case of `O=NN(CCCl)C(=O)NC1CCCCC1`, the T/C runs as follows: (dose: 3.12 mg/kg/injection, schedule: Q01DX001 (ip), vehicle: carboxymethylcellulose (CMC)) 103 % of control; (dose: 3.12 mg/kg/injection, schedule: Q01DX005 (ip), vehicle: carboxymethylcellulose (CMC)) 103 % of control; (dose: 6.25 mg/kg/injection, schedule: Q01DX001 (ip), vehicle: carboxymethylcellulose (CMC)) 99 % of control; (dose: 6.25 mg/kg/injection, schedule: Q01DX005 (ip), vehicle: carboxymethylcellulose (CMC)) 112 % of control; (dose: 12.5 mg/kg/injection, schedule: Q01DX001 (ip), vehicle: carboxymethylcellulose (CMC)) 98 % of control; (dose: 12.5 mg/kg/injection, schedule: Q01DX005 (ip), vehicle: carboxymethylcellulose (CMC)) 114 % of control. The T/C (dose: 32.0 mg/kg/injection, schedule: Q01DX009 (ip), vehicle: Klucel (hydroxypropylcellulose) (HPC)) is 86 % of control; the T/C (dose: 50.0 mg/kg/injection, schedule: Q01DX001 (ip), vehicle: carboxymethylcellulose (CMC)) is 177 % of control; the T/C (dose: 50.0 mg/kg/injection, schedule: Q01DX005 (ip), vehicle: carboxymethylcellulose (CMC)) was 172 % of control; the T/C (dose: 100.0 mg/kg/injection, schedule: Q01DX001 (ip), vehicle: carboxymethylcellulose (CMC)) is 204 % of control; the T/C (dose: 100.0 mg/kg/injection, schedule: Q01DX005 (ip), vehicle: carboxymethylcellulose (CMC)) is 107 % of control.
For the compound `Cn1c2nc(=O)n(-c3ccccc3)c(=O)c-2nc2c1CCCC2`, the T/C is, setting by setting: (dose: 6.25 mg/kg/injection, schedule: Q01DX008 (ip), vehicle: saline with Tween-80) 96 % of control; under setting [9], 119 % of control; (dose: 12.5 mg/kg/injection, schedule: Q01DX008 (ip), vehicle: saline with Tween-80) 104 % of control; under setting [1], 107 % of control; (dose: 25.0 mg/kg/injection, schedule: Q01DX008 (ip), vehicle: saline with Tween-80) 101 % of control; under setting [2], 107 % of control. The T/C reads like this: (dose: 50.0 mg/kg/injection, schedule: Q01DX008 (ip), vehicle: saline with Tween-80) 98 % of control; under setting [5], 101 % of control; under setting [7], 101 % of control and 102 % of control; under setting [8], 96 % of control and 97 % of control.
`CC(NC(=O)OCc1ccccc1)C(=O)NC(CC(N)=O)C(=O)O` (stereo not drawn) (Cbz-Ala-Asn-OH; configuration not given here): the T/C (dose: 12.0 mg/kg/injection, schedule: Q01DX009 (ip), vehicle: Klucel (hydroxypropylcellulose) (HPC)) is 101 % of control; the T/C (dose: 25.0 mg/kg/injection, schedule: Q01DX009 (ip), vehicle: Klucel (hydroxypropylcellulose) (HPC)) was 101 % of control; the T/C (dose: 50.0 mg/kg/injection, schedule: Q01DX009 (ip), vehicle: Klucel (hydroxypropylcellulose) (HPC)) is 98 % of control; the T/C (dose: 100.0 mg/kg/injection, schedule: Q01DX009 (ip), vehicle: Klucel (hydroxypropylcellulose) (HPC)) was 107 % of control; the T/C (dose: 400.0 mg/kg/injection, schedule: Q01DX009 (ip), vehicle: Klucel (hydroxypropylcellulose) (HPC)) was 104 % of control.
On to `Nc1nc(-c2ccc(S(=O)(=O)O)cc2)cc(=O)[nH]1`, for which the T/C is 100 % of control (dose: 3.31 mg/kg/injection, schedule: Q01DX009 (ip), vehicle: saline); 105 % of control (dose: 6.62 mg/kg/injection, schedule: Q01DX009 (ip), vehicle: saline); 105 % of control (dose: 13.25 mg/kg/injection, schedule: Q01DX009 (ip), vehicle: saline); 96 % of control and 104 % of control (dose: 26.5 mg/kg/injection, schedule: Q01DX009 (ip), vehicle: saline); 104 % of control (dose: 53.0 mg/kg/injection, schedule: Q01DX009 (ip), vehicle: saline); 110 % of control (dose: 106.0 mg/kg/injection, schedule: Q01DX009 (ip), vehicle: saline).
`O=S(=O)(O)c1cc(N=C=S)ccc1/C=C/c1ccc(N=C=S)cc1S(=O)(=O)O`: the T/C reads like this: under setting [3], 96 % of control; under setting [4], 95 % of control; under setting [6], 91 % of control; under setting [10], 86 % of control.
Turning to `COC1C(OC(=O)/C=C/C=C/C=C/C=C/C(=O)O)CCC2(CO2)C1C1(C)OC1CC=C(C)C` (centres undefined), the T/C was 117 % of control under setting [4]; 113 % of control under setting [6]; 119 % of control under setting [10]; 113 % of control (dose: 200.0 mg/kg/injection, schedule: Q01DX009 (ip), vehicle: saline).
As to `BrCC[Se]c1ccccc1`, the T/C is 113 % of control and 104 % of control (dose: 3.12 mg/kg/injection, schedule: Q01DX009 (ip), vehicle: saline with Tween-80); 100 % of control under setting [9]; 119 % of control and 103 % of control under setting [1]; 113 % of control and 100 % of control under setting [2]; 95 % of control and 103 % of control under setting [5].

For the origin of these results see PubChem BioAssay AID200 (DTP/NCI, 2004).
